Laboratory results: patent US9771353B2, “Kinase inhibitors based upon N-alkyl pyrazoles” (RESPIVERT LIMITED, priority 2013, dated 2017)

What was measured:
c-Src = c-Src (Homo sapiens (Human), UniProt P12931); assay: c-Src enzyme inhibition (FRET, Z-LYTE); type: biochemical
Description: (§1) The enzyme inhibitory activities of compounds disclosed herein are determined by FRET using synthetic peptides labelled with both donor and acceptor fluorophores (Z-LYTE, Invitrogen Ltd., Paisley, UK).
The relevant enzyme (3000 ng/mL or 2000 ng/mL respectively, 2.5 μL) is incubated with the test compound (either 4 μg/mL, 0.4 μg/mL, 0.04 μg/mL, or 0.004 μg/mL, 2.5 μL each) for 2 hr at RT. The FRET peptides (8 μM, 2.5 μL), and appropriate ATP solutions (2.5 μL, 800 μM for c-Src, and 60 μM ATP for Syk) are then added to the enzymes/compound mixtures and incubated for 1 hr. Development reagent (protease, 5 μL) is added for 1 hr prior to detection in a fluorescence microplate reader (Varioskan® Flash, ThermoFisher Scientific).
(§2) In all cases, the site-specific protease cleaves non-phosphorylated peptide only and eliminates the FRET signal. Phosphorylation levels of each reaction are calculated using the ratio of coumarin emission (donor) over fluorescein emission (acceptor), for which high ratios indicate high phosphorylation and low ratios indicate low phosphorylation levels.

p38 MAPKα = p38 MAPKα (Homo sapiens (Human), UniProt Q16539); assay: p38 MAPKα enzyme inhibition (FRET, Z-LYTE), Method 2; type: biochemical
p38 MAPKα, sequence (Q16539 whole entry): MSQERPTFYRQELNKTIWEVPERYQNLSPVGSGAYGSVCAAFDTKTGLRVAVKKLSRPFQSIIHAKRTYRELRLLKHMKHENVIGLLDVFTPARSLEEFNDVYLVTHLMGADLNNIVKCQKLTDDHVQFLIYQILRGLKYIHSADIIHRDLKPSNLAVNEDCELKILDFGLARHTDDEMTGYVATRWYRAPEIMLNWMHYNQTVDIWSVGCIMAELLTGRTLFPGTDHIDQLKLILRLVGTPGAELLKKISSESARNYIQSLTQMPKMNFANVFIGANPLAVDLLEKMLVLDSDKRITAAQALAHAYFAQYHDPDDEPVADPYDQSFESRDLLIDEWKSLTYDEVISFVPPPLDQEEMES

GSK3α = GSK3α (Homo sapiens (Human), UniProt P49840); assay: GSK 3α enzyme inhibition (FRET, Z-LYTE), Method 2; type: biochemical
GSK3α, sequence (P49840 whole entry): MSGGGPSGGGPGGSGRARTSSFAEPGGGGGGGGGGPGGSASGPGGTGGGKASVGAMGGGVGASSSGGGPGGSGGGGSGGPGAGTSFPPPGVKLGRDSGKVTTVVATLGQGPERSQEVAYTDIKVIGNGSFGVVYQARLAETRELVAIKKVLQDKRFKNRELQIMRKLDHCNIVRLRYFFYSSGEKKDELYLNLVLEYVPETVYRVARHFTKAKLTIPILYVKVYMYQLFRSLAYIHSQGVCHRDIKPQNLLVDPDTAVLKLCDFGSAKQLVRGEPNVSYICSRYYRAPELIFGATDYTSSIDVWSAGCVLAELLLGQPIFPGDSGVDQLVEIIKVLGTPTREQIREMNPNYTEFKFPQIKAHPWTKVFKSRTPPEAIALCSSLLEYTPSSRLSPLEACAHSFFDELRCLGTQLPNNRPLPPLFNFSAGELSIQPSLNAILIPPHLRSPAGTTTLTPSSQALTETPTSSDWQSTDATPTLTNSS
Description: as §1
The inhibitory activities of compounds of the invention against the GSK 3α enzyme isoform (Invitrogen), are evaluated by determining the level of activation/phosphorylation of the target peptide. The GSK3-α protein (500 ng/mL, 2.5 μL) is mixed with the test compound (2.5 μL at either 4 μg/mL, 0.4 μg/mL, 0.04 μg/mL, or 0.004 μg/mL) for 2 hr at RT. The FRET peptide (8 μM, 2.5 μL), which is a phosphorylation target for GSK3α, and ATP (40 μM, 2.5 μL) are then added to the enzyme/compound mixture and the resulting mixture incubated for 1 hr. Development reagent (protease, 5 μL) is added for 1 hr prior to detection in a fluorescence microplate reader (Varioskan® Flash, ThermoFisher Scientific).
as §2
This method follows the same steps as Method 1 above, but utilises a shorter period of mixing of the test compound (105 minutes instead of 2 hours) with the GSK3-α protein.

[1] = tested on: intestinal mucosa biopsies from UC patients; assay: Human biopsy assay (l): cytokine release from intestinal mucosa biopsies of ulcerative colitis patients; type: cell-based; settings: 1 μg/mL, 24 hours
Description: Intestinal mucosa biopsies are obtained from the inflamed regions of the colon of IBD patients. The biopsy material is cut into small pieces (2-3 mm) and placed on steel grids in an organ culture chamber at 37° C. in a 5% CO2/95% O2 atmosphere in serum-free media. DMSO control or test compounds at the desired concentration are added to the tissue and incubated for 24 hr in the organ culture chamber. The supernatant is harvested for determination of IL-6, IL-8, IL-1β and TNFα levels by R&D ELISA. Percentage inhibition of cytokine release by the test compounds is calculated relative to the cytokine release determined for the DMSO control (100%).

[2] = tested on: TNBS-induced colitis in mice; assay: TNBS-induced colitis in mice, in vivo assay (iv), conducted over 2 days; settings: for Ulcer grade: TNBS + Vehicle 4.3 ± 0.2; for LP inflammation: TNBS + Vehicle 4.7 ± 0.1
Description: Non-fasted, 10-12 week old, male BDF1 mice are dosed by oral gavage twice daily with either vehicle (5 mL/kg), reference item (Budesonide 2.5 mg/kg) or test compound (1 or 5 mg/kg) one day before (Day −1) stimulation of the inflammatory response by treatment with 2,4,6-trinitrobenzenesulphonic acid (TNBS) (15 mg/mL in 50% ethanol/50% saline). On Day 0 of the study TNBS (200 μL) is administered intra-colonically via a plastic catheter with BID dosing of the vehicle, reference or test compound continuing for 2 or 4 days. During the study animals are weighed every day and stool observations are made and recorded as a score, based on stool consistency. At the time of sacrifice on Day 2 (or Day 4) the large intestine is removed and the length and weight recorded. Sections of the colon are taken for histopathology scoring to determine disease severity.

[3] = UC patient biopsies, DMSO control = 100%

c-Src, sequence (P12931 whole entry, looked up): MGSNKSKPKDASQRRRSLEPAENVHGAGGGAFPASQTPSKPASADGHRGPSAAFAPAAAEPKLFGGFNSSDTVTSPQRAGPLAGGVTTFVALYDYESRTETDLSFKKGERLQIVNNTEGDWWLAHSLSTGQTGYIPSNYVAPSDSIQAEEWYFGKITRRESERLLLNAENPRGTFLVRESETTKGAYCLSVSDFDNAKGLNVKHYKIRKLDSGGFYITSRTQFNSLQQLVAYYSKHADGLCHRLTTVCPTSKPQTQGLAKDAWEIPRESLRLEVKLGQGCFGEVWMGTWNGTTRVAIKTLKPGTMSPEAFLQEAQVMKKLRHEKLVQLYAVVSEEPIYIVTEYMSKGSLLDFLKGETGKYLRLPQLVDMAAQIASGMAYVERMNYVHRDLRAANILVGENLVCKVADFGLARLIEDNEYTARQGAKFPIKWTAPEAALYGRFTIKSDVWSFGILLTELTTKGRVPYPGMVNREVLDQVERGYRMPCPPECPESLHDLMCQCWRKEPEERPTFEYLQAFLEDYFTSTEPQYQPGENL

Row | SMILES | IC50 (c-Src) [µM] | IC50 (p38 MAPKα) [µM] | IC50 (GSK3α) [µM] | IL-1β release [1, 3] [%] | IL-6 release [1, 3] [%] | IL-8 release [1, 3] [%] | cytokine (IL-1β, IL-6 and IL-8) release compared to the DMSO control ([1]; biopsies from ulcerative colitis patients) | Ulcer grade ([2]; 1 mg/kg oral BID, mice, 2 days) | LP inflammation ([2]; 1 mg/kg oral BID, mice, 2 days) | Ulcer grade ([2]; 5 mg/kg oral BID, mice, 2 days) | LP inflammation ([2]; 5 mg/kg oral BID, mice, 2 days) | inflammatory cell infiltrate in the reticular and laminar propria zone ([2]; TNBS colitis, mice) | activity in in vivo model of colonic inflammation (histopathology analysis) ([2]; TNBS colitis, mice, 2 days) | ulcer grade and epithelial repair compared to the vehicle control ([2]; dosed orally at either 1 or 5 mg/kg)
1 | COCCOCCOCCOc1cc(Nc2nccc(Oc3ccc(NC(=O)Nc4cc(C(C)(C)C)nn4C)c4ccccc34)n2)cc(OC)c1 [Example 2, 1-(3-(tert-Butyl)-1-methyl-1H-pyrazol-5-yl)-3-(4-((2-((3-methoxy-5-(2-(2-(2-methoxy-ethoxy)ethoxy)ethoxy)phenyl)amino)pyrimidin-4-yl)oxy)naphthalen-1-yl)urea] | 0.005 | 0.01 | 5.23 | – | – | – | – | – | – | – | – | – | – | –
2 | C#Cc1cc(Nc2nccc(Oc3ccc(NC(=O)Nc4cc(C(C)(C)C)nn4C)c4ccccc34)n2)cc(C(=O)NCCN2CCOCC2)c1 [Example 1, 3-((4-((4-(3-(3-(tert-Butyl)-1-methyl-1H-pyrazol-5-yl)ureido)naphthalen-1-yl)oxy)pyrimidin-2-yl)amino)-5-ethynyl-N-(2-morpholinoethyl)benzamide] | – | – | 0.499 | 3 ± 2 | 8 ± 8 | 2 ± 2 | significantly inhibited | 3.3 ± 0.5 | 4.2 ± 0.2 | 3.2 ± 0.5 | 2.4 ± 0.3 | marked reduction | significant activity | marked improvements
